Reference: patent publication US11479556B1, “Bifunctional compounds for degrading BTK via ubiquitin proteosome pathway” (NURIX THERAPEUTICS, INC., priority 2018, dated 2022)

Target: T1, BTK (Homo sapiens, UniProt Q06187)
T1 construct: endogenous in cells; host or cells: TMD8 cells
Assay: Cellular BTK HTRF assay (BTK degradation) in TMD8 cells
Format: cell-based
Details: four hours incubation, Total-BTK HTRF relative to DMSO-treated cells
Description: Example 66: BTK Degradation Assay
TMD8 cells were obtained from Tokyo Medical and Dental University and were grown in alpha-MEM (Fisher 12571063) supplemented with 10% heat-inactivated FBS (Corning Premium Fetal Bovine Serum from Fisher, MT35015CV).
Compounds of the present invention were added to 50,000 TMD8 cells in round-bottom 96 well plates with a final DMSO concentration of […] and were incubated at 37° C. 5% CO2 for four hours. BTK levels were determined using Cisbio Total-BTK HTRF ([…] Time-Resolved Fluorescence) kit (63ADK064PEG) according to manufacturer's protocol. Briefly, cells were incubated in 1× supplied lysis buffer for 30 minutes. In an opaque white low volume 96 well plate (Cisbio, 66PL96005), cell lysate was combined with two different specific BTK antibodies, one conjugated with Eu^3+-Cryptate FRET donor and one conjugated with d2 FRET acceptor. Assay controls include wells containing cell lysate with only the Eu^3+-Cryptate FRET donor antibody and wells containing both HTRF antibodies and lysis buffer without cells or control lysate provided by Cisbio. HTRF ratio was calculated as (acceptor signal at 665 nm/donor signal at 620 nm)×10^4. Background HTRF levels were determined from the control well containing the donor, but no acceptor, antibody. Background HTRF levels were subtracted from all samples. Readouts were reported as HTRF levels relative to HTRF levels of DMSO-treated cells. Four-parameter non-linear regressions were performed in GraphPad Prism 7.02 to obtain DC50 values. DC50 values are provided in Table 3, wherein A<5.0 nM, 5.0 nM≤B≤15 nM, and 15 nM<C.

T1 sequence (Q06187 whole entry): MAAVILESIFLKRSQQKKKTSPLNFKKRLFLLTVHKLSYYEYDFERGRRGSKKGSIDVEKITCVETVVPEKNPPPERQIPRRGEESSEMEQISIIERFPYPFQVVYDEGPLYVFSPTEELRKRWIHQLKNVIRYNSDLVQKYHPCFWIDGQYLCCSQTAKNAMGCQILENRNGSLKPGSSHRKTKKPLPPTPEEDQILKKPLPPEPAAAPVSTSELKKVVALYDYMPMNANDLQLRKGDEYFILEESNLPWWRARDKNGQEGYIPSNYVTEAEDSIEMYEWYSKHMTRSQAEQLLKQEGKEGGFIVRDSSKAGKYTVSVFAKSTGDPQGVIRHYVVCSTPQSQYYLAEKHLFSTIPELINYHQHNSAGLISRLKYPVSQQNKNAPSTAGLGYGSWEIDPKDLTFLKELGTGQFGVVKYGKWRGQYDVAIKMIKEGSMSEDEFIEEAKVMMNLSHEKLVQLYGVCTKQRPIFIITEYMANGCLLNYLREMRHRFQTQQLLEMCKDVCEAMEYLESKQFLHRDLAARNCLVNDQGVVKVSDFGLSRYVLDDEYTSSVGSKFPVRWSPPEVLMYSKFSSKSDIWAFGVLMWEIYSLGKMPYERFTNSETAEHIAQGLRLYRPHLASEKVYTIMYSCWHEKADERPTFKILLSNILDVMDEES

DC50 [nM]	Compound
< 5	CN1CCN([C@@H]2CCCN(c3cnc(C(N)=O)c(Nc4ccc(C5CN(CC6CCN(c7cnn(C8CCC(=O)NC8=O)c(=O)c7)CC6)C5)cc4)n3)C2)C1=O (stereo partly shown) [Compound 118]
< 5	CN1CCN([C@@H]2CCCN(c3cnc(C(N)=O)c(Nc4ccc(N5CCN(CC6CN(c7ccc8c(c7)C(=O)N(C7CCC(=O)NC7=O)C8=O)C6)CC5)cc4)n3)C2)C1=O (stereo partly shown) [Compound 60]
< 5	NC(=O)c1ncc(N2CCC[C@@H](CO)C2)nc1Nc1ccc(C2CCN(CC3CCN(c4ccc(C(=O)NC5CCC(=O)NC5=O)nc4)CC3)CC2)cc1 (stereo partly shown) [Compound 173]
5 to 15	CN1CCN([C@@H]2CCCN(c3cnc(C(N)=O)c(Nc4ccc(C5CCN(CC6CCN(c7ccc(CC8CCC(=O)NC8=O)cn7)CC6)CC5)cc4)n3)C2)C1=O (stereo partly shown) [Compound 190]
< 5	CN1CCN([C@@H]2CCCN(c3cnc(C(N)=O)c(Nc4ccc(C5CN(CC6CCN(c7ccc8c(=O)n(C9CCC(=O)NC9=O)ccc8c7)CC6)C5)cc4)n3)C2)C1=O (stereo partly shown) [Compound 69]
< 5	Cn1cc(Nc2nc(N3CCC[C@@H](N4CC5(CN(CC6CCN(c7ccc8c(=O)n(C9CCC(=O)NC9=O)ccc8c7)CC6)C5)OC4=O)C3)cnc2C(N)=O)cn1 (stereo partly shown) [Compound 147]
5 to 15	NC(=O)c1ncc(N2CCCCC2)nc1Nc1ccc(C2CCN(CC3CCN(c4ccc(OC5CCC(=O)NC5=O)cn4)CC3)CC2)cc1 (stereo not shown) [Compound 164]
< 5	CN1CCN([C@@H]2CCCN(c3cnc(C(N)=O)c(Nc4ccc(N5CCN(C[C@@H]6CCCN(c7ccc8c(c7)C(=O)N(C7CCC(=O)NC7=O)C8=O)C6)CC5)cc4)n3)C2)C1=O (stereo partly shown) [Compound 46]
< 5	CC1CCN([C@H]2CCCN(c3cnc(C(N)=O)c(Nc4ccc(C5CCN(C[C@@H]6CCN(c7ccc(-c8nn(C9CCC(=O)NC9=O)c(=O)n8C)cc7)C6)CC5)cc4)n3)C2)C1=O (stereo partly shown) [Compound 142]
> 15	CN1CCN([C@@H]2CCCN(c3cnc(C(N)=O)c(Nc4ccc(N5CCCC6(C5)CN(c5cccc7c5C(=O)N(C5CCC(=O)NC5=O)C7=O)C6)cc4)n3)C2)C1=O (stereo partly shown) [Compound 96]
< 5	CN1CCN([C@H]2CCCN(c3cnc(C(N)=O)c(Nc4ccc(N5CCCC6(CN(Cc7ccc8c(c7)C(=O)N(C7CCC(=O)NC7=O)C8=O)C6)C5)cc4)n3)C2)C1=O (stereo partly shown) [Compound 94]
> 15	CN1CCN([C@H]2CCCN(c3cnc(C(N)=O)c(Nc4ccc(N5CCN(CCCCc6cccc7c6CN(C6CCC(=O)NC6=O)C7=O)CC5)cn4)n3)C2)C1=O (stereo partly shown) [Compound 88]
5 to 15	CN1CCN([C@@H]2CCCN(c3cnc(C(N)=O)c(Nc4ccc(C5CN(CCCCc6cccc7c6CN(C6CCC(=O)NC6=O)C7=O)C5)cc4)n3)C2)C1=O (stereo partly shown) [Compound 36]
< 5	CN1CCN([C@@H]2CCCN(c3cnc(C(N)=O)c(Nc4ccc(C5CN(CC6CN(c7ccc8c(c7)C(=O)N(C7CCC(=O)NC7=O)C8=O)C6)C5)cc4)n3)C2)C1=O (stereo partly shown) [Compound 85]
5 to 15	CN1CCN([C@@H]2CCCN(c3cnc(C(N)=O)c(Nc4ccc(N5CC6CN(Cc7ccc8c(c7)C(=O)N(C7CCC(=O)NC7=O)C8=O)CC6C5)cc4)n3)C2)C1=O (stereo partly shown) [Compound 76]
< 5	CN1CCN([C@@H]2CCCN(c3cnc(C(N)=O)c(Nc4ccc(C5CCN(CCC6CN(c7ccc8c(c7)C(=O)N(C7CCC(=O)NC7=O)C8=O)C6)CC5)cc4)n3)C2)C1=O (stereo partly shown) [Compound 45]
< 5	NC(=O)c1ncc(N2CCC[C@@H](N3CCCC3=O)C2)nc1Nc1ccc(N2CC(C3CCN(c4ccc5c(c4)C(=O)N(C4CCC(=O)NC4=O)C5=O)CC3)C2)nc1 (stereo partly shown) [Compound 168]
< 5	NC(=O)c1ncc(N2CCC2)nc1Nc1ccc(C2CCN(C[C@H]3CCN(c4ccc5c(c4)C(=O)N(C4CCC(=O)NC4=O)C5=O)C3)CC2)cc1 (stereo partly shown) [Compound 162]
> 15	CN1CCN([C@@H]2CCCN(c3cnc(C(N)=O)c(Nc4ccc(C5CCN(CC6CCN(c7ccc(N(C)C8CCC(=O)NC8=O)cn7)CC6)CC5)cc4)n3)C2)C1=O (stereo partly shown) [Compound 180]
5 to 15	CN1CCN([C@@H]2CCCN(c3cnc(C(N)=O)c(Nc4ccc(C5(C)CCN(C(=O)CCOCCNc6cccc7c6C(=O)N(C6CCC(=O)NC6=O)C7=O)CC5)cc4)n3)C2)C1=O (stereo partly shown) [Compound 28]
< 5	CN1CCN([C@@H]2CCCN(c3cnc(C(N)=O)c(Nc4ccc(N5CCN(C[C@H]6CCCN(c7ccc8c(c7)C(=O)N(C7CCC(=O)NC7=O)C8=O)C6)CC5)cc4)n3)C2)C1=O (stereo partly shown) [Compound 48]
< 5	NC(=O)c1ncc(N2CCC[C@H](N3CCCC3=O)C2)nc1Nc1ccc(C2CCN(CC3CCN(c4ccc5c(=O)n(C6CCC(=O)NC6=O)ccc5c4)CC3)CC2)cc1 (stereo partly shown) [Compound 144]
< 5	CN1CCN([C@@H]2CCCN(c3cnc(C(N)=O)c(Nc4ccc(C5(C)CCN(C(=O)CCCN6CCN(c7ccc8c(c7)C(=O)N(C7CCC(=O)NC7=O)C8=O)CC6)CC5)cc4)n3)C2)C1=O (stereo partly shown) [Compound 11]
5 to 15	CN1CCN([C@@H]2CCCN(c3cnc(C(N)=O)c(Nc4ccc(C5CCN(C(=O)CNc6cccc7c6C(=O)N(C6CCC(=O)NC6=O)C7=O)CC5)cc4)n3)C2)C1=O (stereo partly shown) [Compound 184]
> 15	CN1CCN([C@@H]2CCCN(c3cnc(C(N)=O)c(Nc4ccc(N5CCC6CCN(c7cccc8c7C(=O)N(N7CCC(=O)NC7=O)C8=O)CC6C5)cc4)n3)C2)C1=O (stereo partly shown) [Compound 105]

The next lines start with the molecule.

Compound	DC50 [nM]
CN1CCN([C@H]2CCCN(c3cnc(C(N)=O)c(Nc4ccc(C(=O)N5CCN(Cc6ccc7c(c6)C(=O)N(C6CCC(=O)NC6=O)C7=O)CC5)cc4)n3)C2)C1=O (stereo partly shown) [Compound 90]	5 to 15
CN1CCN([C@@H]2CCCN(c3cnc(C(N)=O)c(Nc4ccc(C5CCN(C(=O)CCOCCOCCOCCNc6cccc7c6C(=O)N(C6CCC(=O)NC6=O)C7=O)CC5)cc4)n3)C2)C1=O (stereo partly shown) [Compound 24]	5 to 15
CN1CCN([C@@H]2CCCN(c3cnc(C(N)=O)c(Nc4ccc(N5CCN(CC6CCN(c7ccc8c(c7)C(=O)N(C7CCC(=O)NC7=O)C8=O)CC6)CC5)cc4)n3)C2)C1=O (stereo partly shown) [Compound 49]	< 5
CN1CCN([C@@H]2CCCN(c3cnc(C(N)=O)c(Nc4cccc(NC(=O)CCCN5CCN(c6ccc7c(c6)C(=O)N(C6CCC(=O)NC6=O)C7=O)CC5)c4)n3)C2)C1=O (stereo partly shown) [Compound 62]	> 15
CN1CCN([C@@H]2CCCN(c3cnc(C(N)=O)c(Nc4ccc(C5CCN(C[C@@H]6[C@H]7CN(c8ccc9c(c8)C(=O)N(C8CCC(=O)NC8=O)C9=O)C[C@@H]67)CC5)cc4)n3)C2)C1=O (stereo partly shown) [Compound 39]	< 5
CN1CCN([C@@H]2CCCN(c3cnc(C(N)=O)c(Nc4ccc(C5CCN(C[C@H]6CC[C@H](Nc7cccc8c7C(=O)N(C7CCC(=O)NC7=O)C8=O)CC6)CC5)cc4)n3)C2)C1=O (stereo partly shown) [Compound 154]	< 5
NC(=O)c1ncc(N2CCCC3(COC3)C2)nc1Nc1ccc(C2CCN(C[C@H]3CCN(c4ccc5c(c4)C(=O)N(C4CCC(=O)NC4=O)C5=O)C3)CC2)cc1 (stereo partly shown) [Compound 126]	< 5
CN1CCN([C@H]2CCCN(c3cnc(C(N)=O)c(Nc4ccc(N5CC[C@H]6CCN(c7ccc8c(c7)C(=O)N(N7CCC(=O)NC7=O)C8=O)C[C@H]6C5)cc4)n3)C2)C1=O [Compound 106]	5 to 15
NC(=O)c1ncc(N2CCC[C@@H](CO)C2)nc1Nc1ccc(C2CCN(C[C@H]3CCN(c4ccc5c(c4)C(=O)N(C4CCC(=O)NC4=O)C5=O)C3)CC2)cc1 (stereo partly shown) [Compound 174]	< 5
NC(=O)c1ncc(N2CCC[C@H](N3CCCC3=O)C2)nc1Nc1ccc(C2CN(CC3CCN(c4ccc5c(=O)n(C6CCC(=O)NC6=O)ccc5c4)CC3)C2)cc1 (stereo partly shown) [Compound 139]	< 5
CN1CCN([C@@H]2CCCN(c3cnc(C(N)=O)c(Nc4ccc(N5CC6(CN(CCCc7cccc8c7CN(C7CCC(=O)NC7=O)C8=O)C6)C5)cc4)n3)C2)C1=O (stereo partly shown) [Compound 33]	< 5
CN1CCN([C@@H]2CCCN(c3cnc(C(N)=O)c(Nc4ccc(OCCCNC(=O)CCCN5CCN(c6ccc7c(c6)C(=O)N(C6CCC(=O)NC6=O)C7=O)CC5)cc4)n3)C2)C1=O (stereo partly shown) [Compound 4]	> 15
NC(=O)c1ncc(N2CCC[C@H](N3CCCC3=O)C2)nc1Nc1ccc(C2CN(C[C@@H]3CCN(c4ccc5c(c4)C(=O)N(C4CCC(=O)NC4=O)C5=O)C3)C2)cc1 (stereo partly shown) [Compound 140]	< 5
CN1CCN([C@@H]2CCCN(c3cnc(C(N)=O)c(Nc4ccc(C(=O)NCCOCCc5cccc6c5CN(C5CCC(=O)NC5=O)C6=O)cc4)n3)C2)C1=O (stereo partly shown) [Compound 9]	> 15
NC(=O)c1ncc(N2CCC[C@@H](CO)C2)nc1Nc1ccc(C2CCN(CC3CCN(c4ccc(NC5CCC(=O)NC5=O)cn4)CC3)CC2)cc1 (stereo partly shown) [Compound 170]	< 5
CN1CCN([C@@H]2CCCN(c3cnc(C(N)=O)c(Nc4ccc(C5CN(CC6CCN(c7ccc(-c8nn(C9CCC(=O)NC9=O)c(=O)n8C)cc7)CC6)C5)cc4)n3)C2)C1=O (stereo partly shown) [Compound 119]	< 5
CN1CCN([C@@H]2CCCN(c3cnc(C(N)=O)c(Nc4ccc(C5CCN(CC6CN(c7ccc8c(=O)n(C9CCC(=O)NC9=O)ccc8c7)C6)CC5)cc4)n3)C2)C1=O (stereo partly shown) [Compound 116]	< 5
CN1CCN([C@@H]2CCCN(c3cnc(C(N)=O)c(Nc4ccc(C5CCN(C(=O)COc6cccc7c6C(=O)N(C6CCC(=O)NC6=O)C7=O)CC5)cc4)n3)C2)C1=O (stereo partly shown) [Compound 158]	5 to 15
